| Structure (SMILES) | melting point [°C] |
| --- | --- |
| CCOC(=O)C=Cc1ccc2c(c1)CC(NC(=O)OC(C)(C)C)CC2 (centres undefined) | 99 to 100 |
| CN1CCc2c(-c3ccc(Cl)cc3)ccc([N+](=O)[O-])c2C1 | 162 to 163 |
| Cn1cc(C2=C(c3c4n(c5ccccc35)CC3CN(C(=O)OC(C)(C)C)CC3C4)C(=O)OC2=O)c2ccccc21 (centres undefined) | 265 to 266 |
| CC1(C2CCCC2)Cc2cc(OCC(=O)O)c(Cl)c(Cl)c2C1=NO (centres undefined) | 230 |
| Cc1nc(-c2c(Cl)cc(C(F)(F)F)cc2Cl)[nH]c1[N+](=O)[O-] | 316 to 318 |
| C(=C\c1ccc2oc3ccc(/C=C/c4ccccc4)cc3c2c1)/c1ccccc1 | 226 |
| Cc1c(C(=O)O)cnn1-c1nc(-c2cccc(C(F)(F)F)c2)cs1 | 227 to 228 |
| CCOC(=O)c1c(C)nn(-c2ccc(Br)cc2)c1C | 71 to 73 |
| CCOC(=O)C(Br)C(=O)Nc1ccccc1 (racemic) | 90 |
| CCCCCCOc1nc(N)nc2c1ncn2C1C=CC(CO)C1 (centres undefined) | 90 to 92 |
| CCOC(=O)[C@@H](O)CCNC(=O)[C@@H](CSC(C)=O)Cc1ccccc1C | 48 to 52 |
| CCC(NS(=O)(=O)c1ccc(F)cc1)P(=O)(Oc1ccccc1)Oc1ccccc1 (centres undefined) | 148 to 151 |
| O=C(Nc1cccc(OC(F)(F)F)c1)NC1N=C(c2ccccc2F)c2ccccc2N(CC(=O)N2CC3CCC(CC3)C2)C1=O (racemic) | 156 to 164 |
| CN(C)C(=O)NC1CCC(=O)c2ccccc21 (centres undefined) | 157 to 162 |
| C=CCCc1sc(C#N)c2c1C(=O)CC(C)(C)C2 | 43 to 46 |
| c1c2c(cc3c1OCO3)CN(CN1CCc3cc4c(cc3C1)OCO4)CC2 | 116 |
| Cc1csc2nc(N3CCC(C(=O)O)CC3)nc(NCc3ccc(F)cc3)c12 | 279 |
| N#Cc1c(N2CCc3ccccc3CC2)nc(NCCOc2ccccc2)[nH]c1=O | > 200 |
| CC(C)(C)OC(=O)COc1coc(CN2CCCC2)cc1=O | 93 to 94 |
| COc1ccc(NC(=O)NC2N=C(c3ccccc3)c3ccccc3N(C)C2=O)cc1 (centres undefined) | 261 to 263 |
| O=C(Cc1noc2ccccc12)NS(=O)(=O)C1CC1 | 147 to 148 |
| CCC1Cc2cc(N)ccc2C1=O (centres undefined) | 106 to 108 |
| CCOC(=O)c1cn(C)c2c(=O)c3ccccc3oc2c1=O | 251 to 254 |
| CC(n1cncn1)C(O)(Cn1cncn1)c1ccc(F)cc1F (centres undefined) | 115 to 116 |
| Cc1cc(C)c([N+](=O)[O-])cc1N1CCCCC1=O | 134 to 135 |

Now from value to compound:

| melting point [°C] | Structure (SMILES) |
| --- | --- |
| 120 to 122 | Cc1nn(C)c(OC(=O)CCl)c1C(=O)c1ccc(Cl)cc1Cl |
| 154 to 156 | CNC(=O)c1cc(-c2ccc(OC)cc2)nn(Cc2ccc(Cl)cc2Cl)c1=O |
| 100 to 120 | COc1ccc(N2C(=O)C3Cc4c(ncn4Cc4ccccc4)CN3C2=S)cc1 (centres undefined) |
| 171 to 173 | O=C(NNc1ccccc1)c1ccc(F)cc1F |
| 65 to 67 | CCSc1ccc(OC(C)c2ccnc3ncnn23)cc1 (centres undefined) |
| 95 to 96 | CCOC(=O)c1cn(Cc2ccccn2)nc1S(=O)(=O)NC(=O)Nc1nc(OC)cc(OC)n1 |
| > 260 | COc1cc(C(F)(F)F)cc(OC)c1-c1csc(NC(=O)c2cc3ccccc3[nH]2)n1 |
| 143 to 145 | COc1ccc(N2N=C3c4ccccc4SCCC3CC2=O)cc1 (centres undefined) |
| 271 | Cc1cc(-c2cnn3c(C(F)(F)F)cc(-c4ccc(F)c(Cl)c4)nc23)cc(C)n1 |
| 264 to 266 | CC(C)=C(C(=O)O)c1cc(C(C)C)c(O)c2c(Cc3ccccc3)cccc12 |
| 103 to 105 | COC(=O)Cc1ccc2c(c1)CCc1ccccc1S2 |
| 193 to 194 | COc1ccc(C(=O)Nc2ccc(F)cc2)cc1Nc1ccc(F)cc1 |
| 55 to 57 | COC(=O)CSc1ccc(OC)cc1C(=O)OC |
| 269 to 271 | Cc1ccc(Cl)c(NS(=O)(=O)c2nc3nc(Cl)cc(Cl)n3n2)c1Cl |

Source: a melting point compilation (Tetko et al.; mined from patent text by program, amines drawn as free bases though some values may be those of a salt)
